Literature values, collected in patent US20070122507A1, “Histone deacetylase and tumor necrosis factor converting enzyme inhibition” (priority 2005, published 2007).

System: R6/2 transgenic mouse models
Conditions: HD in R6/2 transgenic mouse models

Q: With `CCCC(=O)[O-].[Na+]` [sodium butyrate] as the compound, how does the motor deficits read?
A: reduces

Q: And the neuropathological effects?
A: reduces

Q: What about the survival of the same compound?
A: significantly enhances survival
